Read-outs that look alike come from different tables or passages of the source.

This note sets out measurements from patent US9260429B2, “Pyrido[3,4-B]indoles and methods of use” (Medivation Technologies, Inc., priority 2008, dated 2016).

The target of assay [1] is T1, human recombinant adrenergic α2A receptor (Homo sapiens, UniProt P08913).
T1 construct: expressed in transfected cells; host or cells: insect Sf9 cells
T1 sequence (P08913 1-465): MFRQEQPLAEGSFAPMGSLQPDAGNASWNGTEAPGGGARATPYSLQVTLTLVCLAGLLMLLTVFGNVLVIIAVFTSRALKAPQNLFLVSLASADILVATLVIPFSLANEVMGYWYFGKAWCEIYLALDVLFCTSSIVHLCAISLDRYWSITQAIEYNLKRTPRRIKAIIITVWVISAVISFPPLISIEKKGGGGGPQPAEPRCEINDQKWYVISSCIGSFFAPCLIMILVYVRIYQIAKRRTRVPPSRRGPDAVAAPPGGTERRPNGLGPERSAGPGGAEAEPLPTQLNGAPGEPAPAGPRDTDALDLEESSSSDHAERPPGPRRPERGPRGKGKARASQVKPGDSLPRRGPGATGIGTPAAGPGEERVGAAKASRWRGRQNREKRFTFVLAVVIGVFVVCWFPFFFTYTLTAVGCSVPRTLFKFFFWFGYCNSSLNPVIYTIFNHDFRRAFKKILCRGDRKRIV
In words: Adrenergic α2A radioligand binding ([3H]MK-912). On the procedure:
To evaluate in radioligand binding assays the activity of compounds of the invention, human recombinant adrenergic α2A receptor expressed in insect Sf9 cells (Uhlen S et al. J Pharmacol Exp Ther. 271:1558, 1994) in a modified Tris-HCl buffer (50 mM Tris-HCl, pH 7.4, 12.5 mM MgCl2, 2 mM EDTA) was used. Compounds of invention were incubated with 1 nM [^3H]MK-912 for 60 minutes at 25° C. MK912 is (2S-trans)-1,3,4,5′,6,6′,7,12b-octahydro-1′,3′-dimethyl-spiro[2H-benzofuro[2,3-a]quinolizine-2,4′(1′H)-pyrimidin]-2′(3′H)-one hydrochloride Non-specific binding was estimated in the presence of 10 μM WB-4101 (2-(2,6-Dimethoxyphenoxyethyl)aminomethyl-1,4-benzodioxane hydrochloride). Receptor proteins were filtered and washed, the filters were then counted to determine [^3H]MK-912 specifically bound. Compounds were screened at 1 μM or lower, using 1% DMSO as vehicle. Biochemical assay results are presented as the percent inhibition of specific binding in Table 4.

Assay [2] addresses T2, human recombinant serotonin (5-Hydroxytryptamine) 5-HT2C receptor (Homo sapiens, UniProt P28335).
T2 construct: expressed in transfected cells; host or cells: CHO-K1 cells
T2 sequence (P28335 33-458): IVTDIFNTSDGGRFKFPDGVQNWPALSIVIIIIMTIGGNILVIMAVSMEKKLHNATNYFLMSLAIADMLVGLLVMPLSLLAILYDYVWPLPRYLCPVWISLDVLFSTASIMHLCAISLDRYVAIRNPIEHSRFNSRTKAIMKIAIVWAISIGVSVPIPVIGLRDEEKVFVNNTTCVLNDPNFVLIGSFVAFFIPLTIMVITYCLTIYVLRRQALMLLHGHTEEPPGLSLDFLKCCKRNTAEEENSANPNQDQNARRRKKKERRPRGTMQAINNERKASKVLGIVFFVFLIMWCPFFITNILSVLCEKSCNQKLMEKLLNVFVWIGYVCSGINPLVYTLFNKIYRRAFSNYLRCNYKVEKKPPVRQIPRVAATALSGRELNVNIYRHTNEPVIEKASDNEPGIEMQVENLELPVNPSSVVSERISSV
In words: Serotonin 5-HT2C radioligand binding ([3H]Mesulergine). How it is done:
Compounds of the invention were incubated with 1 nM [^3H]Mesulergine for 60 minutes at 25° C. Non-specific binding was estimated in the presence of 1 μM Mianserin. Receptor proteins were filtered and washed, the filters were then counted to determine [^3H]Mesulergine specifically bound. […] Biochemical assay results are presented as the percent inhibition of specific binding in Table 5.

Assay [3] deals with T3, human recombinant adrenergic α1D receptor (Homo sapiens, UniProt P25100).
T3 construct: expressed in transfected cells; host or cells: HEK-293 cells
T3 sequence (P25100 1-572): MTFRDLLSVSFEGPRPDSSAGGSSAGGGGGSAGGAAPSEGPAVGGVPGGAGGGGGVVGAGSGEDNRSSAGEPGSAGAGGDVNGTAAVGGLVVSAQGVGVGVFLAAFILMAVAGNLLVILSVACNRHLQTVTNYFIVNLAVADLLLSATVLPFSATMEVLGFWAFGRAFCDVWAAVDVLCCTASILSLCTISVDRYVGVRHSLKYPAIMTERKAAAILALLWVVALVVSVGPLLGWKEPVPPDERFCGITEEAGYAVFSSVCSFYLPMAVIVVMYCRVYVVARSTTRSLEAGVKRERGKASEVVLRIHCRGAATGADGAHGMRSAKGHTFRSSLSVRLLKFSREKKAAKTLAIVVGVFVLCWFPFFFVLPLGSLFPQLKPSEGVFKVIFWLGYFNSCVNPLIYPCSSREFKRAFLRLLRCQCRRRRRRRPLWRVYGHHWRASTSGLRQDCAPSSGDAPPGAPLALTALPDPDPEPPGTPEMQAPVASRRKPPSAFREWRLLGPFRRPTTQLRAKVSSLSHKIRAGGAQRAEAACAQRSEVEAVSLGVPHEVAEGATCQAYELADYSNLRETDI
In words: Adrenergic α1D radioligand binding ([3H]Prozosin). On the procedure:
To evaluate in radioligand binding assays the activity of compounds of the invention, human recombinant adrenergic a1D receptor expressed in human embryonic kidney (HEK-293) cells (Kenny, B. A. et al. Br. J. Pharmacol. 115(6):981, 1995) in a 50 mM Tris-HCl buffer, pH 7.4, was used. Compounds of invention were incubated with 0.6 nM [^3H]Prozosin for 60 minutes at 25° C. Non-specific binding was estimated in the presence of 10 μM phentolamine. Receptor proteins were filtered and washed, the filters were then counted to determine [^3H]Prozosin specifically bound. Compounds were screened at 1 μM or lower, using 1% DMSO as vehicle. Biochemical assay results are presented as the percent inhibition of specific binding in Table 4. Adrenergic a2A

The mark [4] stands for this setting: 1 h, read-out: Percent Inhibition of ligand binding Adrenergic (1 μM ligand conc.) α2A.
Where [5] appears, read: 1 h, read-out: Percent Inhibition of ligand binding Serotonin (1 μM ligand concentration) 5-HT2C.
[6] abbreviates: 1 h, read-out: Percent Inhibition of ligand binding Adrenergic (1 μM ligand conc.) α1D.

As to `CN1CCc2c(n(CC(O)c3ccccc3F)c3ccc(Cl)cc23)C1` (stereo not shown) [Compound 59, 2-(6-chloro-2-methyl-3,4-dihydro-1H-pyrido[3,4-b]indol-9(2H)-yl)-1-(2-fluorophenyl)ethanol], the inhibition at 1 µM in assay [1] (setting [4]) was 91%; in assay [2] (setting [5]) it was 74%; in assay [3] (setting [6]), 30%.

Turning to `C/C(=C/n1c2c(c3cc(C)ccc31)CCN(C)C2C)c1ccccc1F` (stereo not shown) [Compound 165], the inhibition at 1 µM in assay [1] (setting [4]) turned out to be 86%; in assay [2] (setting [5]), 93%; in assay [3] (setting [6]), 26%.

Take `CN1CCc2c(n(CC(O)c3ccccc3)c3ccc(Cl)cc23)C1` (stereo not shown) [Compound 71]: the results for the inhibition at 1 µM in assay [1] (setting [4]), in assay [2] (setting [5]) and in assay [3] (setting [6]) were 88%, 81% and 58%, respectively.

Regarding `Cc1ccc2c(c1)c1c(n2CC(=O)N2CCCCC2)CN(C)CC1` [Compound 57, 2-(2,6-dimethyl-3,4-dihydro-1H-pyrido[3,4-b]indol-9(2H)-yl)-1-(piperidin-1-yl)ethanone], the inhibition at 1 µM in assay [1] (setting [4]) stood at 4%; in assay [2] (setting [5]), 14%; in assay [3] (setting [6]) it was 77%.

With `CCC1c2c(c3cc(C)ccc3n2C(=O)Cc2ccc(F)cc2)CCN1C` (stereo not shown) [Compound 159], the inhibition at 1 µM in assay [1] (setting [4]) was determined as 71%; in assay [2] (setting [5]), 103%; in assay [3] (setting [6]), 25%.

In the case of `C/C(=C\n1c2c(c3cc(C)ccc31)CCN(C)C2C)c1ccc(Cl)cc1` (stereo not shown) [Compound 161, 9-(2-(4-chlorophenyl)prop-1-enyl)-1,2,6-trimethyl-2,3,4,9-tetrahydro-1H-pyrido[3,4-b]indole], the inhibition at 1 µM in assay [1] (setting [4]) came out at 52%; in assay [2] (setting [5]), 99%; in assay [3] (setting [6]), 32%.

Regarding `CCC1c2c(c3cc(C)ccc3n2/C=C(\C)c2ccc(Cl)cc2)CCN1C` (stereo not shown) [Compound 160, 9-(2-(4-chlorophenyl)prop-1-enyl)-1-ethyl-2,6-dimethyl-2,3,4,9-tetrahydro-1H-pyrido[3,4-b]indole], the results for the inhibition at 1 µM in assay [1] (setting [4]), in assay [2] (setting [5]) and in assay [3] (setting [6]) were 51%, 103% and 25%, respectively.

On to `COc1ccc(C(O)Cn2c3c(c4cc(Cl)ccc42)CCN(C)C3)cc1OC` (stereo not shown) [Compound 70], for which the inhibition at 1 µM in assay [1] (setting [4]) was determined as 81%; in assay [2] (setting [5]), 63%; in assay [3] (setting [6]), 44%.

`CN1CCc2c(n(CCC3CCCC3)c3ccc(Cl)cc23)C1` [Compound 35, 6-chloro-9-(2-cyclopentylethyl)-2,3,4,9-tetrahydro-2-methyl-1H-pyrido[3,4-b]indole]: the inhibition at 1 µM in assay [1] (setting [4]) is 88%; in assay [2] (setting [5]), 87%; in assay [3] (setting [6]), 60%.

Turning to `CCC1c2c(c3cc(Cl)ccc3n2C#Cc2ccc(F)cc2)CCN1C` (stereo not shown) [Compound 129], the values for the inhibition at 1 µM in assay [1] (setting [4]), in assay [2] (setting [5]) and in assay [3] (setting [6]) were 75%, 107% and 10%, respectively.

Turning to `CN1CCc2c(n(CC(C)(O)c3ccc(F)cc3)c3ccc(Cl)cc23)C1` (stereo not shown) [Compound 62, 1-(6-chloro-2-methyl-3,4-dihydro-1H-pyrido[3,4-b]indol-9(2H)-yl)-2-(4-fluorophenyl)propan-2-ol], the inhibition at 1 µM in assay [1] (setting [4]) stood at 90%; in assay [2] (setting [5]) it was 95%; in assay [3] (setting [6]), 44%.

Take `CN1CCc2c(n(CC(=O)NC3CCCCC3)c3ccc(Cl)cc23)C1` [Compound 17, 2-(6-chloro-1,2,3,4-tetrahydro-2-methylpyvrido[3,4-b]indol-9-yl)-N-cyclohexylacetamide]: the inhibition at 1 µM in assay [1] (setting [4]) worked out at 17%; in assay [2] (setting [5]), 3%; in assay [3] (setting [6]), 18%.

Consider `C/C(=C\n1c2c(c3cc(C)ccc31)CCN(C)C2C)c1ccccc1F` (stereo not shown) [Compound 166], for which the inhibition at 1 µM came out at 95% in assay [1] (setting [4]); 95% in assay [1] (compound concentration 1 μM, read-out: Percentage inhibition of ligand binding to Adrenergic α2A receptor); 96% in assay [2] (setting [5]); 96% in assay [2] (compound concentration 1 μM, read-out: Percentage inhibition of ligand binding to 5-HT2C receptor); 69% in assay [3] (setting [6]); 69% in assay [3] (compound concentration 1 μM, read-out: Percentage inhibition of ligand binding to Adrenergic α1D receptor). For the same compound, in assay [2] (compound concentration 10 nM, read-out: Percentage inhibition of ligand binding to 5-HT2C receptor), the inhibition at 0.01 µM came to 33%. For the same compound, the inhibition at 0.03 µM in assay [2] (compound concentration 0.03 μM, read-out: Percentage inhibition of ligand binding to 5-HT2C receptor) stood at 62%. Also, the inhibition at 0.1 µM in assay [2] (compound concentration 0.1 μM, read-out: Percentage inhibition of ligand binding to 5-HT2C receptor) amounted to 87%. Further, the inhibition at 0.3 µM in assay [2] (compound concentration 0.3 μM, read-out: Percentage inhibition of ligand binding to 5-HT2C receptor) was found to be 93%.

On to `Cc1ccc2c(c1)c1c(n2CCC(=O)N2CCCCC2)CN(C)CC1` [Compound 43, 3-(1,2,3,4-tetrahydro-2,6-dimethylpyrido[3,4-b]indol-9-yl)-1-(piperidin-1-yl)propan-1-one], for which the inhibition at 1 µM in assay [1] (setting [4]) is 42%; in assay [2] (setting [5]), 31%; in assay [3] (setting [6]), 58%.

Regarding `CCC1c2c(c3cc(Cl)ccc3n2CC(C)(O)c2ccc(F)cc2)CCN1C` (stereo not shown) [Compound 79], the inhibition at 1 µM in assay [1] (setting [4]) turned out to be 92%; in assay [2] (setting [5]), 77%; in assay [3] (setting [6]), 17%.

In the case of `COC(=O)Cn1c2c(c3cc(C)ccc31)CCN(C)C2` [Compound 21, methyl 2-(1,2,3,4-tetrahydro-2,6-dimethylpyrido[3,4-b]indol-9-yl)acetate], the inhibition at 1 µM in assay [1] (setting [4]) was 0%; in assay [3] (setting [6]) it was -7%. The “Percent Inhibition of ligand binding Serotonin (1 μM ligand concentration) 5-HT2C” value in assay [2] (1 μM ligand concentration) amounted to 16%.

In the case of `CN1CCc2c(n(CC(=O)N(C)C)c3ccc(Cl)cc23)C1` [Compound 16, 2-(6-chloro-1,2,3,4-tetrahydro-2-methylpyrido[3,4-b]indol-9-yl)-N,N-dimethylacetamide], the inhibition at 1 µM was -4% in assay [1] (setting [4]), -18% in assay [2] (setting [5]) and 2% in assay [3] (setting [6]).
